Key:
Format in all cases: biochemical
EGFR = EGFR (Homo sapiens, UniProt P00533); test: cell-free in vitro kinase inhibition assay; kinetic data
EPHA1 = biological target: T1, EPHA1 (Homo sapiens, UniProt P21709); test: in vitro kinase inhibition, single concentration ([…]); conditions: read-out: %Inhibition (1 μM WSD-0922)
T1 sequence (P21709 26-976): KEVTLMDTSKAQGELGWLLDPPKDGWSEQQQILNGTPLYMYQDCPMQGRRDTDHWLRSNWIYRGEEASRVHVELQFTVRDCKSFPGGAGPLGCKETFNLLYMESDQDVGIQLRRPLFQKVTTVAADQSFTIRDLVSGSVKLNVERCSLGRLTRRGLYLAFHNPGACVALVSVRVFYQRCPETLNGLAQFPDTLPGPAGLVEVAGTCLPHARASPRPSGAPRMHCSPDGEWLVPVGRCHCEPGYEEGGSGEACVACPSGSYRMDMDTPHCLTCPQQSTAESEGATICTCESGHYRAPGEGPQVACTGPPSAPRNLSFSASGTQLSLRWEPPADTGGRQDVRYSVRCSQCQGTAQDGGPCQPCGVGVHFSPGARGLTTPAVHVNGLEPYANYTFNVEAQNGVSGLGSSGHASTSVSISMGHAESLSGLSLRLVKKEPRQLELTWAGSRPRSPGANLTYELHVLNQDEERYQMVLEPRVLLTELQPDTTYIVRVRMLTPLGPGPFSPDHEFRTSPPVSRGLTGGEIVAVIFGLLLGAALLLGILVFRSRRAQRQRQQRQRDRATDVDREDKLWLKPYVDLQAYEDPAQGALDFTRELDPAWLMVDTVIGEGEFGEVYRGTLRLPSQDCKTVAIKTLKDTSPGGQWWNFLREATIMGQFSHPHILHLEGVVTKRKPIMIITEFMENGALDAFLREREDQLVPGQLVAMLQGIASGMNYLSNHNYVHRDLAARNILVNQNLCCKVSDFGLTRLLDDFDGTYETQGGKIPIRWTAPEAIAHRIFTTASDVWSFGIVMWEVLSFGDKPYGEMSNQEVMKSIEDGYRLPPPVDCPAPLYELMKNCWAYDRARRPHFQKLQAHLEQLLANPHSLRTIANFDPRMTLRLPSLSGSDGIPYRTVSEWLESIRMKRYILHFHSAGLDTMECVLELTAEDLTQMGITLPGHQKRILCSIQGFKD

HCK = HCK (Homo sapiens, UniProt P08631); test: as above; conditions: read-out: %Inhibition (1 μM WSD-0922)
HER4 = biological target: T2, HER4 (Homo sapiens, UniProt Q15303); test: as above; conditions: read-out: %Inhibition (1 μM WSD-0922)
T2 construct: gene ERBB4

SRC = SRC (Homo sapiens, UniProt P12931); test: as above; conditions: read-out: %Inhibition (1 μM WSD-0922)
LCK = LCK (Homo sapiens, UniProt P06239); test: as above; conditions: read-out: %Inhibition (1 μM WSD-0922)
LYNa = biological target: T3, LYNa (Homo sapiens, UniProt P07948); test: as above; conditions: read-out: %Inhibition (1 μM WSD-0922)
T3 construct: gene LYN
T3 sequence (P07948 2-512): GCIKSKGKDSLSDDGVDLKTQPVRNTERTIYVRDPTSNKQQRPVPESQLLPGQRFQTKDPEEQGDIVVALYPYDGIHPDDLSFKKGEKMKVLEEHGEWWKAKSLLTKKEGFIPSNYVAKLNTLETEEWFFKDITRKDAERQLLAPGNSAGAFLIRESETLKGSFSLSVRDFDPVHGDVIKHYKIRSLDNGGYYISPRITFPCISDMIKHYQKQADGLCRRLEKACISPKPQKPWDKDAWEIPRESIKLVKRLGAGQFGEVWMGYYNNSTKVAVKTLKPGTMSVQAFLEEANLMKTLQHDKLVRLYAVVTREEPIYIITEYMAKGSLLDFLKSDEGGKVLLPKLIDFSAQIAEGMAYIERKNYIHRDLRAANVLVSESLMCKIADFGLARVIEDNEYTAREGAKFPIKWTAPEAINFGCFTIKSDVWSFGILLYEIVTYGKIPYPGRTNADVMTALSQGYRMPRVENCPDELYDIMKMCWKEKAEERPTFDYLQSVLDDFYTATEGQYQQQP

Sequence of LCK (P06239 2-509): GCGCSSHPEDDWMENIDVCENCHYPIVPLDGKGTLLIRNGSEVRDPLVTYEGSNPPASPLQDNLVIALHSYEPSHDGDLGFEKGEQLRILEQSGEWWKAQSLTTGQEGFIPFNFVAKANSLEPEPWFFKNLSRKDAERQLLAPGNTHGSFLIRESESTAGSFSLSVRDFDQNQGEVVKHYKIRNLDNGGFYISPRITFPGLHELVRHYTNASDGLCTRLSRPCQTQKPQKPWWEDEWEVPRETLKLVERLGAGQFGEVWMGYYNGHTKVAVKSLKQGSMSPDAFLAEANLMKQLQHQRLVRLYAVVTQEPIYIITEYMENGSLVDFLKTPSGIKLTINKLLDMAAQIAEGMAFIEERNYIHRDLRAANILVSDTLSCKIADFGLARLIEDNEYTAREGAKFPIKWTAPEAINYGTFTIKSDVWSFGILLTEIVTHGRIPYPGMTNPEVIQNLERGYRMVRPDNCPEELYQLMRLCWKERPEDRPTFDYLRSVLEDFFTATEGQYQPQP
T2 sequence (Q15303 26-1308): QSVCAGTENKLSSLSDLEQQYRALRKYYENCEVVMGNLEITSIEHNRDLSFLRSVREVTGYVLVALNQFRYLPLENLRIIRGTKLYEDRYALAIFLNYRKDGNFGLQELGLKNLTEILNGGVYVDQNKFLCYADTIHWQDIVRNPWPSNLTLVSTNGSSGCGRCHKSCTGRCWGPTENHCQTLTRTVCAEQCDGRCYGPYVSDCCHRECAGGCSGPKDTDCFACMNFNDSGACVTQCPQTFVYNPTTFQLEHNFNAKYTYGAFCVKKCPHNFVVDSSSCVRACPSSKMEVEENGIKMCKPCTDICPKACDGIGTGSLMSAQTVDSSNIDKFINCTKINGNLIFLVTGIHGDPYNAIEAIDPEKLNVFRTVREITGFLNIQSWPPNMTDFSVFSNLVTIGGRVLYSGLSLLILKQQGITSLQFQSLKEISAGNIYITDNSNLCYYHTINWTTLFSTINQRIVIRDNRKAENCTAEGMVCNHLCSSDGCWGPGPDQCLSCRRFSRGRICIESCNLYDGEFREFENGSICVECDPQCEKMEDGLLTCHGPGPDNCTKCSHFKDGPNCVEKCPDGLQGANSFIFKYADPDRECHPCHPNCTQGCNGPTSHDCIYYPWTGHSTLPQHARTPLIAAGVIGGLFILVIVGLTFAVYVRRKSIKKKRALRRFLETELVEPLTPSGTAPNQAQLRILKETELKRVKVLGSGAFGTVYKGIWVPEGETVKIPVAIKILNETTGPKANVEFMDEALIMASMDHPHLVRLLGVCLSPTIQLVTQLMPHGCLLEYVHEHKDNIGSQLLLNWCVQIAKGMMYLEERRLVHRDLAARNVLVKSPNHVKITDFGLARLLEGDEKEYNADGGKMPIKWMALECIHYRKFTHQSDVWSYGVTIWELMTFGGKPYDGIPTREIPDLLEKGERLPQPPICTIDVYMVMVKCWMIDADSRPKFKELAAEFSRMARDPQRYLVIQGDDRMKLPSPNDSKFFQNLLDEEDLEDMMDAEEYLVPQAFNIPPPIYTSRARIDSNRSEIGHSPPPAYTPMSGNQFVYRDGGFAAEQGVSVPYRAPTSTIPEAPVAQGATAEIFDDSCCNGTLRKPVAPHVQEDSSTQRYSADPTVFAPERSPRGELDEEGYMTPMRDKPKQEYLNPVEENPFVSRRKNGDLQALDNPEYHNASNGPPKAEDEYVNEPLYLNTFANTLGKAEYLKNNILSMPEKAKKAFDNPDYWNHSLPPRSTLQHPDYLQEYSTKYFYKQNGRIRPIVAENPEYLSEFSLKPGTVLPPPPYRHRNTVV
Sequence of SRC (P12931 2-536): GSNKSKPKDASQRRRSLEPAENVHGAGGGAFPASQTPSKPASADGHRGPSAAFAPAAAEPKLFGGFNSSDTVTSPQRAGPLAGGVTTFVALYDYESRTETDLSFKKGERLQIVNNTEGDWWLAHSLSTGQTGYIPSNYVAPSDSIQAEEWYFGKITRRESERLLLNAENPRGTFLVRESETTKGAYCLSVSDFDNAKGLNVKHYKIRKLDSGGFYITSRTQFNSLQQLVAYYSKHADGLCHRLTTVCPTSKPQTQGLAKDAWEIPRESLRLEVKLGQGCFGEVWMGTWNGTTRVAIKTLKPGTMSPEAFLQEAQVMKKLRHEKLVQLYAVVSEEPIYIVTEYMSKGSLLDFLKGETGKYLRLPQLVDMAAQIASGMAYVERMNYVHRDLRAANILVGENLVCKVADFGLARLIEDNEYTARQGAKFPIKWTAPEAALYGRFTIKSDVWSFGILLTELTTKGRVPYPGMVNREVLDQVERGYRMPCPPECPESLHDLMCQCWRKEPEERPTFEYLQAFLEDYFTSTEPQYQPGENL
Sequence of EGFR (P00533 25-1210): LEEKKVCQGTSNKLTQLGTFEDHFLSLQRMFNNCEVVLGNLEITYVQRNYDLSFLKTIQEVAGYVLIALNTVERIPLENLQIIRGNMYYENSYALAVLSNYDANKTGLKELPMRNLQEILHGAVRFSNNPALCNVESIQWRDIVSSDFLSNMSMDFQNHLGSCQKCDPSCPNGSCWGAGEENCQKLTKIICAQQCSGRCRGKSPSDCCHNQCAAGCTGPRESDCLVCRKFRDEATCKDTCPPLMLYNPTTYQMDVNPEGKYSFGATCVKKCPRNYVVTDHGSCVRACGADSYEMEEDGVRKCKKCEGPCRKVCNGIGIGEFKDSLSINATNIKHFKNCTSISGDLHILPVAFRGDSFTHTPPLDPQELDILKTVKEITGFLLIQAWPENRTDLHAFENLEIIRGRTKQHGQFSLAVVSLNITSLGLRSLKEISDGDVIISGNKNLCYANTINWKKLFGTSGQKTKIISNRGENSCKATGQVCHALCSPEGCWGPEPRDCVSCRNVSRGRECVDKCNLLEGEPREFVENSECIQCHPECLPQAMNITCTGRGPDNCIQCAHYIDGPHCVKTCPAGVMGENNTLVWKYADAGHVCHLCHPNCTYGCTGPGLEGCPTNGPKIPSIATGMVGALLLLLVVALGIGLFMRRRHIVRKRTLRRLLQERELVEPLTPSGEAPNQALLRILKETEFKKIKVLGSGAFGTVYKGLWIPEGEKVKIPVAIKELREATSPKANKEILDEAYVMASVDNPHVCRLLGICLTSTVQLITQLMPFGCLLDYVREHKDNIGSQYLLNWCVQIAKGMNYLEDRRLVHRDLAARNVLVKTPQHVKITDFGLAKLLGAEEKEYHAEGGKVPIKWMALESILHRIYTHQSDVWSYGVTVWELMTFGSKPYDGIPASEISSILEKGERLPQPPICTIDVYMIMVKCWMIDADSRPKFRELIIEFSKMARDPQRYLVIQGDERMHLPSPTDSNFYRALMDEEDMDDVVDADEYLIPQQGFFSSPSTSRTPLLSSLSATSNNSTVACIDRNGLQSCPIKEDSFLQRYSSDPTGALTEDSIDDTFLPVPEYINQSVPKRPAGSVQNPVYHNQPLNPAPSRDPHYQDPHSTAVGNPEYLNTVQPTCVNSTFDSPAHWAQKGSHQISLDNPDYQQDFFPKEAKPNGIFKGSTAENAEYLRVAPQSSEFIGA
Sequence of HCK (P08631 2-526): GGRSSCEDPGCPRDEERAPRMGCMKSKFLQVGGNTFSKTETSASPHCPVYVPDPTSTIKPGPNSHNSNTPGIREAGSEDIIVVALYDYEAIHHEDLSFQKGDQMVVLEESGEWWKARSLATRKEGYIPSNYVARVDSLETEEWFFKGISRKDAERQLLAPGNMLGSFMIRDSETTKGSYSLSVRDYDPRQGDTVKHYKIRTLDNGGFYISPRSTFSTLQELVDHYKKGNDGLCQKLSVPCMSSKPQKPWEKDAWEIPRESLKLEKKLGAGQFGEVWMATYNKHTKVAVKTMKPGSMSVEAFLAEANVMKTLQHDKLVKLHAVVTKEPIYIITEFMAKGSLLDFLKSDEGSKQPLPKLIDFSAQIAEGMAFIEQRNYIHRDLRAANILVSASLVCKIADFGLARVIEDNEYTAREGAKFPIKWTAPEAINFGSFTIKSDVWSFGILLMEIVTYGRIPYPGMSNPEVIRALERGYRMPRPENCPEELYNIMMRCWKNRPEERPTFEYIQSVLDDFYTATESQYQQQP

- IC50 (EGFR): 0.056 nM
- inhibition at 1 µM (EPHA1): 55.4%
- inhibition at 1 µM (HCK): 49.7%
- inhibition at 1 µM (HER4): 69.8%
- inhibition at 1 µM (SRC): 39.5%
- inhibition at 1 µM (LCK): 46.2%
- inhibition at 1 µM (LYNa): 70.9%
SMILES: C#Cc1cccc(Nc2ncnc3cc(OC)c(O[C@@H]4CCN(C)CC4(F)F)cc23)c1F [WSD-0922]

From paper PMC10263119, “WSD-0922, a novel brain-penetrant inhibitor of epidermal growth factor receptor, promotes survival in glioblastoma mouse models” (Neuro-Oncology Advances, 2023)
